Like-named read-outs stand apart in the source and are kept apart here.
Tests used:
eNOS = target: T1, eNOS (Bos taurus, UniProt P29473); test: NOS activity assay, conversion of L-[14C(U)]-arginine to L-[14C(U)]-citrulline, recombinant eNOS; format: biochemical, bovine; conditions: for Effect on eNOS activity: up to the highest concentration (100 µM)
T1 construct: purchased Sigma Chem. (St. Louis, MO)
T1 sequence (P29473 2-1205 limits assumed): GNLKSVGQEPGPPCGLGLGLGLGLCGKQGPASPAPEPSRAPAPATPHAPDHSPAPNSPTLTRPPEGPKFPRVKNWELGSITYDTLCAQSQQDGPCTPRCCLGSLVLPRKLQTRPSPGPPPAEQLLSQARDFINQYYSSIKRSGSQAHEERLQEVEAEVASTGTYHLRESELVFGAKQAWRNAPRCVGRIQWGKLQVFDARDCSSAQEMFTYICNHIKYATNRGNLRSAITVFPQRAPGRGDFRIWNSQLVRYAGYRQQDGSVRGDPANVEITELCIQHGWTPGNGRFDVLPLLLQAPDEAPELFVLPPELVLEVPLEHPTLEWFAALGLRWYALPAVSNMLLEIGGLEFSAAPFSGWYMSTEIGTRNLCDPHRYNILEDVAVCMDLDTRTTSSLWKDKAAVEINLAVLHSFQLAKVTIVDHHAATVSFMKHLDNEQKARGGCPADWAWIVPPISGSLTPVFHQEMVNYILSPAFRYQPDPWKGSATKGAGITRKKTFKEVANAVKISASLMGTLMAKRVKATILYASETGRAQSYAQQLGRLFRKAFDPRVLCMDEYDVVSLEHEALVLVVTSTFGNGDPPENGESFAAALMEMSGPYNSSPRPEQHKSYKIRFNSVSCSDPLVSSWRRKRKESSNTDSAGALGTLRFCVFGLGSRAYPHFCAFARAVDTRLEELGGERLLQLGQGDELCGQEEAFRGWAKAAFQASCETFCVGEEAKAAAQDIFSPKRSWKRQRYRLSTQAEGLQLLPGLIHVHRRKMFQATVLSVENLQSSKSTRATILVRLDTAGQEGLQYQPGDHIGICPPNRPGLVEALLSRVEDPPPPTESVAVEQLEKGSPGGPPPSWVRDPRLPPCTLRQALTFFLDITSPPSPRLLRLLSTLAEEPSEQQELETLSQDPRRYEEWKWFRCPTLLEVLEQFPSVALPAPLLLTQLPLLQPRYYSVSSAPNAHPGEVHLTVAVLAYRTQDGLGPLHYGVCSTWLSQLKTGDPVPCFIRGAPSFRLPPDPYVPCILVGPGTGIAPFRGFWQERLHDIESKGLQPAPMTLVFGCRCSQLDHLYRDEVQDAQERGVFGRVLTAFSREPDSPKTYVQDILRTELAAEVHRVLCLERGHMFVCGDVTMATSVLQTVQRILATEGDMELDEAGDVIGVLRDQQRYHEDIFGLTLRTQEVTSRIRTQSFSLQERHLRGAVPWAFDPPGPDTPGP
Excerpt: (§1) Secosterol-A and -B were synthesized according to Wentworth et al.([1]) L-Arginine, nicotinamide adenine dinucleotide phosphate reduced form (NADPH), flavin adenine dinucleotide (FAD), flavin mononucleotide (FMN), (6R)-5,6,7,8-tetrahydrobiopterin (BH4), recombinant eNOS (from bovine), iNOS (from mouse macrophages), and Dowex® AG50W-X8 cation-exchange resin (mesh size, 100–200) were all purchased from Sigma Chem. (St. Louis, MO). Ultima Gold XR scintillation liquid was from PerkinElmer (Shelton, CA). Recombinant nNOS (from rat) was obtained from Cayman Chem. All other chemicals were obtained from Wako Pure Chem. Ind., Osaka, Japan.
(§2) The NOS activities were determined by monitoring the conversion of L-[^14C(U)]-arginine (Moravek, Brea, CA) to L-[^14C(U)]-citrulline as previously described.([28]) Recombinant enzymes of three isoforms of NOS (specific activity: eNOS 0.03, nNOS 2.9, iNOS 0.62 units/mg protein) (10 µl) were added to a reaction mixture (final volume of 100 µl) consisting of 50 mM HEPES buffer (pH 7.4), 1 mM NADPH, 4 µM FAD, 4 µM FMN, 10 µM BH4, 1 mg/L (60 µM) calmodulin (CaM), 2.5 mM CaCl2, 50 µM L-arginine, 0.5 µCi/ml of L-[^14C(U)]-arginine (specific activity: 8.14–11.1 GBq/mmol) and varying concentrations of the test compound. After incubation for 30 min at 37°C, the reactions were terminated by the addition of 0.5 ml of 20 mM HEPES (pH 5.5) containing 2 mM EDTA and 2 mM EGTA. Samples were passed through a 1 ml column of Dowex AG50W-X8 (Na^+-form) to remove unconverted L-[^14C(U)]-arginine. L-[^14C(U)]-Citrulline was eluted twice with 1 ml of distilled water, and the eluted fractions mixed with 10 ml of cocktail (Ultima Gold XR) were quantified using a liquid scintillation counter. A reaction mixture containing L-[^14C(U)]-arginine without the enzyme was incubated as a control to determine background counts. The effects of oxidized cholesterol metabolites on the NOSs activities were examined in the presence and absence of the test compounds at various concentrations, which were prepared in 5% ethanol and a 10 µl aliquot was added into the reaction mixture.
(§3) Initial rates of citrulline formation were obtained by linear leastsquares data fitting of actual experimental data. Apparent Km and Vmax values at each inhibitor concentration were obtained from nonlinear regression fitting using the Michaelis-Menten equation. Ki and Kiʹ were obtained from the X-axis intercepts of plots of measured Km/Vmax and 1/Vmax vs inhibitor concentration, respectively.

nNOS = target: T2, nNOS (Rattus norvegicus, UniProt P29476); test: NOS activity assay, conversion of L-[14C(U)]-arginine to L-[14C(U)]-citrulline, recombinant nNOS; format: biochemical; conditions: for Effect on nNOS activity: up to the highest concentration (100 µM); for Pattern of inhibition of nNOS activity: Lineweaver-Burke plot
T2 construct: purchased Cayman Chem
T2 sequence (P29476 whole entry): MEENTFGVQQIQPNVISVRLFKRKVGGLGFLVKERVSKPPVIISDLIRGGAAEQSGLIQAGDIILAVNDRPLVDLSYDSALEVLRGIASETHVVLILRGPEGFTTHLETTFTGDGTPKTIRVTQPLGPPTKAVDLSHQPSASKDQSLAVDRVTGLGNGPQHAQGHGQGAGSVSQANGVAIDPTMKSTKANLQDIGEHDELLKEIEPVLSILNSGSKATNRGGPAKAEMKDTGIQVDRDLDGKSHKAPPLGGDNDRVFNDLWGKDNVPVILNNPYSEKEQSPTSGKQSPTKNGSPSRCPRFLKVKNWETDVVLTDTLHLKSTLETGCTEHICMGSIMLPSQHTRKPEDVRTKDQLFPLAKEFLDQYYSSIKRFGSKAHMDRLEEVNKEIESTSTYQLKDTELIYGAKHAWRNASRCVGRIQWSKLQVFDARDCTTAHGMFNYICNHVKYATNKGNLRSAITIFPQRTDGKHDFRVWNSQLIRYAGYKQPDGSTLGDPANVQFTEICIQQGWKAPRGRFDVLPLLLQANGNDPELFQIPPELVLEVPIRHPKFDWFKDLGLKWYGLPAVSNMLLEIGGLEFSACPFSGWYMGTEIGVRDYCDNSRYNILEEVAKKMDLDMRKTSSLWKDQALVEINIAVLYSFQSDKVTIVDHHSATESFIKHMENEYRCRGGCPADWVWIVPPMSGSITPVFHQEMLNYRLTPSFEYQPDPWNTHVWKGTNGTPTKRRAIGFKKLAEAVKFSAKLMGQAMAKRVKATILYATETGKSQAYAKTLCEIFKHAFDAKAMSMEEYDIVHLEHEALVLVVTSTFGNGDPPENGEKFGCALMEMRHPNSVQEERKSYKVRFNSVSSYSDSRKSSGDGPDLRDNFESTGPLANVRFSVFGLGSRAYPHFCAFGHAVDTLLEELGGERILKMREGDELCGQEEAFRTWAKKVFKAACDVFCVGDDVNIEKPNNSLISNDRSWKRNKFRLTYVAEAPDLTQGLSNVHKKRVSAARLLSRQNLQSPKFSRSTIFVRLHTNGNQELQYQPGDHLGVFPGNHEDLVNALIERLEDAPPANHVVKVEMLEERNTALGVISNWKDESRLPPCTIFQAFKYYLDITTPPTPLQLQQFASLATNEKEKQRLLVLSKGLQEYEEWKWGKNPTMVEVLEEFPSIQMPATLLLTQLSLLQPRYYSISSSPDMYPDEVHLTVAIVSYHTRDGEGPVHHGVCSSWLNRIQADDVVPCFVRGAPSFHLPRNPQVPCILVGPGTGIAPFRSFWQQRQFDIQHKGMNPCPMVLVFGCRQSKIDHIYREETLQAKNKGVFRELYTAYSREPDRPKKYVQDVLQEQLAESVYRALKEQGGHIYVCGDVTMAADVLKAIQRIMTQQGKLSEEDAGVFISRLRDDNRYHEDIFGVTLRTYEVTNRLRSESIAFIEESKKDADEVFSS
Excerpt: as §1, §2, §3

iNOS = target: T3, iNOS (Mus musculus, UniProt P29477); test: NOS activity assay, conversion of L-[14C(U)]-arginine to L-[14C(U)]-citrulline, recombinant iNOS; format: biochemical; conditions: tested 1–100 µM, highest concentration 100 µM
T3 construct: purchased Sigma Chem. (St. Louis, MO)
Excerpt: as §1, §2

bovine serum albumin = bovine serum albumin (Bos taurus, UniProt P02769); test: Reaction with proteins to form the adduct (preliminary, unpublished data)
bovine serum albumin, sequence (P02769 25-607): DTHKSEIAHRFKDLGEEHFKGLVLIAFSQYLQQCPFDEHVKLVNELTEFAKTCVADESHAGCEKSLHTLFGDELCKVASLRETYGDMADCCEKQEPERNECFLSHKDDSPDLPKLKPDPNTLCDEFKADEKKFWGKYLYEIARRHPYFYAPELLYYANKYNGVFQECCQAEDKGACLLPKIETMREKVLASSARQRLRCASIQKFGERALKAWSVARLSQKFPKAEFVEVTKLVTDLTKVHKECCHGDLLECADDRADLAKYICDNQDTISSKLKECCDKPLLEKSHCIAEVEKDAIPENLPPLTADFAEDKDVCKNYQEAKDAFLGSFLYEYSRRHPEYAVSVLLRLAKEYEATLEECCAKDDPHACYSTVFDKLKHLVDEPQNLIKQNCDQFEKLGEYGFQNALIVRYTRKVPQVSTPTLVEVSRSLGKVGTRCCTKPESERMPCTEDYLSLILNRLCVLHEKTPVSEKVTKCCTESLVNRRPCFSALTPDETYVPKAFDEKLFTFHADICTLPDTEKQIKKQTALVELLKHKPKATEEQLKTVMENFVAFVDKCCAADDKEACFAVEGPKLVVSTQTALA

[1] = varying L-arginine, read-out: Ki(app) for the catalytic site

CC(C)CCC[C@@H](C)[C@H]1CC[C@H]2[C@@H]3C[C@H]4O[C@]45C[C@@H](O)CC[C@]5(C)[C@H]3CC[C@]12C [5β,6β-epoxycholesterol]
Effect on eNOS activity (eNOS): do not affect
Effect on nNOS activity (nNOS): do not affect
Effect on iNOS activity (iNOS): do not affect

CC(C)CCC[C@@H](C)[C@H]1CC[C@H]2[C@@H]3[C@@H](C=O)[C@]4(O)C[C@@H](O)CC[C@]4(C)[C@H]3CC[C@]12C [secosterol-B, 3β-hydroxy-5β-hydroxy-B-norcholestane-6β-carboxaldehyde]
Effect on eNOS activity (eNOS): do not affect
Effect on nNOS activity (nNOS): do not affect
Effect on iNOS activity (iNOS): do not affect

CC(C)CCC[C@@H](C)[C@H]1CC[C@H]2[C@@H]3CC=C4C[C@@H](O)CC[C@]4(C)[C@H]3CC[C@]12C [cholesterol]
Effect on eNOS activity (eNOS): do not affect
Effect on eNOS activity (eNOS; listed as Cholesterol): no inhibitory effects
Effect on nNOS activity (nNOS): do not affect
Effect on nNOS activity (nNOS; listed as Cholesterol): no inhibitory effects
Effect on iNOS activity (iNOS): do not affect
Effect on iNOS activity (iNOS; listed as Cholesterol): no inhibitory effects

CC(C)CCC[C@@H](C)[C@H]1CC[C@H]2[C@@H]3C(=O)C=C4C[C@@H](O)CC[C@]4(C)[C@H]3CC[C@]12C [7-ketocholesterol, 3β-hydroxy-5-cholesten-7-one]
Effect on eNOS activity (eNOS): do not affect
Effect on nNOS activity (nNOS): do not affect
Effect on iNOS activity (iNOS): do not affect

CC(C)CCC[C@@H](C)[C@H]1CC[C@H]2[C@H](CC=O)[C@@H]([C@@]3(C)CC[C@H](O)CC3=O)CC[C@]12C [secosterol-A, 3β-hydroxy-5-oxo-5,6-secocholestan-6-al]
eNOS activity, % of the activity without secosterol-A (eNOS; 100 µM secosterol-A, 10 µM BH4): 41%
Restoration of inhibited eNOS activity by added BH4 (eNOS; 100 µM secosterol-A, 50 and 100 µM BH4): did not restore
Restoration of inhibited eNOS activity by excess CaM (eNOS; 100 µM secosterol-A, CaM 60–600 µM): did not restore
Vmax(app)ʹ (eNOS; L-arginine as substrate, in the presence of 50 µM secosterol-A (1400 without inhibitor)): 480 µmol·L^−1·30 min^−1
IC50 (eNOS; recombinant bovine eNOS, 50 µM L-arginine, 30 min at 37°C): 50 ± 5 µM
Ki (eNOS; [1]): 50 µM
Reactivity with proteins to form the adduct (bovine serum albumin): more easily than secosterol-B
nNOS activity, % of the activity without secosterol-A (nNOS; 40 µM secosterol-A, 10 µM BH4): 23%
nNOS activity compared to the activity without secosterol-A (nNOS; 40 µM secosterol-A, 60 µM CaM): 22%
Restoration of inhibited nNOS activity by added BH4 (nNOS; 40 µM secosterol-A, 50 and 100 µM BH4): did not restore
nNOS activity compared to the activity without secosterol-A (nNOS; 40 µM secosterol-A, excess CaM 300 µM): 63%
nNOS activity compared to the activity without secosterol-A (nNOS; 40 µM secosterol-A, excess CaM 600 µM): 86%
Vmax(app)ʹ (nNOS; L-arginine as substrate, in the presence of 40 µM secosterol-A (10000 without inhibitor)): 909 µmol·L^−1·30 min^−1
IC50 (nNOS; recombinant rat nNOS, 50 µM L-arginine, 30 min at 37°C): 22 ± 1 µM
Pattern of inhibition of nNOS activity (nNOS; varying CaM): noncompetitive or a mixed-type
Ki (nNOS; varying CaM, read-out: Kiʹ for the allosteric site (CaM-dependent nNOS activity)): 30 µM
Pattern of inhibition of nNOS activity (nNOS; varying L-arginine): noncompetitive or a mixed-type
Ki (nNOS; [1]): 10 µM
Ki (nNOS; varying L-arginine, read-out: Ki(app)ʹ for the allosteric site): 1 µM
Effect on iNOS activity (iNOS): did not affect

C[C@H](CCCC(C)(C)O)[C@H]1CC[C@H]2[C@@H]3CC=C4C[C@@H](O)CC[C@]4(C)[C@H]3CC[C@]12C [25-hydroxycholesterol]
Effect on eNOS activity (eNOS): do not affect
Effect on nNOS activity (nNOS): do not affect
Effect on iNOS activity (iNOS): do not affect

— paper PMC3246188, “Inhibition of endothelial- and neuronal-type, but not inducible-type, nitric oxide synthase by the oxidized cholesterol metabolite secosterol aldehyde: Implications for vascular and neurodegenerative diseases” (Journal of Clinical Biochemistry and Nutrition, 2011)
